Measured values published in publication PMC3668096 (FEBS letters, 2012).
Values belong to the molecule of their own block, whether it stands above or below them.

Columns and labels:
B. subtilis BshA = B. subtilis BshA (Bacillus subtilis, UniProt P42982); assay: HPLC detection of UDP release at […] nm; assay type: biochemical
MshA = target: T1, MshA (Mycolicibacterium smegmatis, UniProt A0QQZ8); assay: MshA glycosyltransferase assay; assay type: biochemical; conditions: 1 mM UDP-GlcNAc, 1 mM 1-L-inositol-1-phosphate
T1 sequence (A0QQZ8 1-434): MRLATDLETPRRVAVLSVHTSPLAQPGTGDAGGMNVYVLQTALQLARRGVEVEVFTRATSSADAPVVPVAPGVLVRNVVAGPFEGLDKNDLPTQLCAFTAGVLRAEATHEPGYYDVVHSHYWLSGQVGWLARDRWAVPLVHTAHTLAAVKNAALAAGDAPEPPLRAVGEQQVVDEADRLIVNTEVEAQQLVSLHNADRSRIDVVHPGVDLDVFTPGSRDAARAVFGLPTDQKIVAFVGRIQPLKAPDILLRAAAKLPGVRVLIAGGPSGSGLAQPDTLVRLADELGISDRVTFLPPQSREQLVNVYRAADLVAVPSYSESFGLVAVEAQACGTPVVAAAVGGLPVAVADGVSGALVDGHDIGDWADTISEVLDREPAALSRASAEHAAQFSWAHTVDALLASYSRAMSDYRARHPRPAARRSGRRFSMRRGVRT

Sequence of B. subtilis BshA (P42982 whole entry): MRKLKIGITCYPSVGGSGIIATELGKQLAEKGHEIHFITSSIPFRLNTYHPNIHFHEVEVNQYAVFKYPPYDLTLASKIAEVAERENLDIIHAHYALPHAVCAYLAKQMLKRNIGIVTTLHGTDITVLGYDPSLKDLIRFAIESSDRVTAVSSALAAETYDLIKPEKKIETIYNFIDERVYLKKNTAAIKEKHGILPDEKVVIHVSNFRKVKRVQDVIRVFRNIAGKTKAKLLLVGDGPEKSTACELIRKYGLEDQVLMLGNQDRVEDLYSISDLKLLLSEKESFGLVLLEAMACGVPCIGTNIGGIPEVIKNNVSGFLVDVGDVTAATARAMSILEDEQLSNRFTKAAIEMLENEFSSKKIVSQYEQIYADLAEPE

IC50 (B. subtilis BshA): 700 µM
Compound: N[C@@H](CS)C(=O)N[C@H]1[C@@H](O[C@@H](CC(=O)O)C(=O)O)O[C@H](CO)[C@@H](O)[C@@H]1O [BSH, bacillithiol]

IC50 (MshA; preincubated with MSH, feedback inhibition): 3600 µM
Compound: CC(=O)N[C@@H](CS)C(=O)NC1[C@@H](O[C@@H]2[C@H](O)[C@H](O)[C@@H](O)[C@H](O)[C@H]2O)O[C@H](CO)[C@@H](O)[C@@H]1O (stereo partly drawn) [MSH, mycothiol]

IC50 (MshA; preincubated with inhibitor): 200 µM
Compound: CC(=O)N[C@H]1[C@@H](OP(=O)(O)OP(=O)(O)OC[C@H](C=O)OC(C=O)n2ccc(=O)[nH]c2=O)O[C@H](CO)[C@@H](O)[C@@H]1O (stereo partly drawn) [O-UDP-GlcNAc, 2’,3’-dialdehydo-UDP-N-acetylglucosamine]
